One assay concerns OVCAR-3. Put plainly: IC50 in OVCAR-3 tumor cell model. It counts as cell-based. The following applies: human ovarian cancer model. The text has this:
(§1) Representative IC50 values of thiarabine and related prodrugs tested in two tumor cell models, a humanized murine colorectal model MC38^hPDL-1 and a human ovarian cancer model OVCAR-3, are shown in Table 1 below.

The next assay relates to MC38^hPDL-1. As to the kind of experiment: IC50 in MC38^hPDL-1 tumor cell model. It counts as cell-based. The conditions noted are these: Mus musculus, MC38-hPD-L1; humanized murine colorectal model; read-out: MC38^huPD=L1 (IC50 μM).
From the text: as §1

In assay [1] the test system is MC38^hPDL-1 colon tumor cells. Put plainly: MC38^hPDL-1 tumor response to mono- and combination-therapy in mice. Format: in vivo, C57BL/6^hPD-1/hPD-L1 mice. The following applies: combination with Keytruda; subcutaneous MC38^hPDL-1 tumor; FIG. 1A/1B. The protocol:
A total of 32 C57BL/6^hPD-1/hPD-L1 mice, male and female, were injected subcutaneously with five hundred thousand (5×10^5) MC38^hPDL-1 colon tumor cells in the right flank at a volume of 0.1 mL. Innoculation day was marked as Day 0. Tumor measurements were taken biweekly for the duration of the study. Tumor weights (mg) were calculated using the equation for an ellipsoid sphere: (l×w^2)/2=mm^3, where l and w refer to the larger and smaller dimensions collected at each measurement and assuming unit density (1 mm^3=1 mg). Target tumor weight for initiation of treatment was approximately 75 to 144 mg for a target group mean tumor weight of approximately 110 mg. The animals on study were randomly assigned to four groups to contain two males and six females. Dosing began on day 13 of the study. Re-challenge of MC38^1-1 in the opposite flank of tumor-free mice from the Keytruda and combination groups occurred on day 31 of the study and mice were monitored for tumor growth for the duration of the study.
Thiarabine: The 500 mg vial was reconstituted with 4.6 mL of saline (0.9% Sodium chloride) to yield a 100 mg/mL stock solution. Each day of dosing, the 100 mg/mL solution was diluted to […] with saline. The dose concentration was 10 mL/kg with a dose volume of 0.1 mL for dose of 30 mg/kg. Mice were dosed IP Q2Dx10. […]

The results in this text go back to US20220241310A1, “THIARABINE- AND THIARABINE PRODRUG-BASED TREATMENTS” (Southern Research Institute, priority 2019, published 2022).

For orientation: IC50 means the concentration that inhibits the measured activity by half.

As to `Nc1ccn([C@@H]2S[C@H](CO)[C@@H](O)[C@@H]2O)c(=O)n1` [Thiarabine], the figures for the IC50 in the assay with OVCAR-3 and in the assay on MC38^hPDL-1 were 1.13 µM and 2.71 µM, respectively. Also, in assay [1], the “tumor volume over time” value is reported as “total tumor regression”.
On to `CC(C)OC(=O)[C@H](C)NP(=O)(OC[C@H]1S[C@@H](n2ccc(N)nc2=O)[C@@H](O)[C@@H]1O)Oc1ccccc1` (single isomer, unassigned) [SRI-41302], for which the concentration for half-maximal inhibition (IC50) with OVCAR-3 was 1.25 µM; in the assay on MC38^hPDL-1 it was 15.8 µM. For the same molecule, the “tumor volume over time” value in assay [1] is listed as “total tumor regression”.
For `CCC(CC)COC(=O)[C@H](C)NP(=O)(OC[C@H]1S[C@@H](n2ccc(N)nc2=O)[C@@H](O)[C@@H]1O)Oc1ccccc1` (stereo partly drawn) [SRI-44340, ethylbutyl ((((2R,3S,4S,5R)-5-(4-amino-2-oxopyrimidin-1(2H)-yl)-3,4-dihydroxytetrahydrothiophen-2-yl)methoxy)(phenoxy)phosphoryl)-1-alaninate], the IC50 with OVCAR-3 came to 0.65 µM.
